Laboratory results from US20240287066A1, “Crystalline Form of Sotorasib” (Sandoz AG, priority 2021, published 2024).
Where two headings read alike, the source gives them in different places. One block for each compound: values may come before it.

Legend:
[1] = Gravimetric moisture sorption (GMS) of sotorasib Form A; assay type: physicochemical
Description: Gravimetric moisture sorption was performed with an SPSx-1μ moisture sorption analyzer (ProUmid, Ulm). The measurement cycle was started at ambient relative humidity (RH) of 40%. RH was then decreased to 5% in 5% steps, followed by a further decrease to 3% and to 0%. […] Finally, RH was increased to ambient relative humidity of 40% in 5% steps. The time per step was set to a minimum of 2 hours and a maximum of 6 hours. If an equilibrium condition with a constant mass of ±0.01% within 1 hour was reached before the maximum time for all examined samples the sequential humidity step was applied before the maximum time of 6 hours. If no equilibrium was achieved the consecutive humidity step was applied after the maximum time of 6 hours. The temperature was (25±0.1)° C.

[2] = Stress stability (temperature and humidity stress, PXRD read-out); assay type: physicochemical; settings: for solid form by PXRD after stress storage: 30 weeks, open stored in glass vials
Text: Sotorasib Form A of the present invention was subjected to various temperature and humidity stress conditions for 30 weeks as outlined in Table 3 below. The samples were open stored in glass vials.

[3] = Powder dissolution in acetate buffer pH 4.5 and phosphate buffer pH 6.8; assay type: physicochemical; settings: for solubility compared to crystalline Form I (in words): 15 minutes to 24 hours; for phase change by PXRD during the dissolution experiments: acetate buffer pH 4.5 and phosphate buffer pH 6.8, 37° C., up to 24 hours
Description: Powder dissolution experiments were carried out at a temperature of 37° C. in acetate buffer pH 4.5 and phosphate buffer pH 6.8 for the crystalline Form I of sotorasib disclosed in WO 2020/236947 A1 and the crystalline Form A of sotorasib of the present invention. Particle sizes of both forms were kept as similar as possible to allow for proper comparison. The respective concentrations were determined at a wavelength of 293 nm in case of the acetate buffer and at 354 nm in case of the phosphate buffer.

[4] = cited from earlier work; for hygroscopic behaviour (in words): GMS data of WO 2020/236947 A1, 0-90% RH, 25° C.; for Mass increase from 0-90% RH at 25° C.: GMS, data from paragraph [0334] on page 46 of WO 2020/236947 A1

hygroscopic behaviour (in words) ([1]; GMS, 0-90% RH, 25° C.): slightly hygroscopic | mass difference in the sorption cycle between 0 and 90% RH ([1]; GMS, 0-90% RH, (25±0.1)° C.): about 0.4 w-% | Mass increase from 0-90% RH at 25° C. ([1]; GMS, data from FIG. 4 of present invention): +0.4% | PXRD of the sample after the GMS experiment ([1]; after sorption/desorption cycle 0-90% RH, 25° C.): same PXRD | solid form by PXRD after stress storage ([2]; 25° C./60% RH): Form A | solid form by PXRD after stress storage ([2]; 30° C./65% RH): Form A | solid form by PXRD after stress storage ([2]; 40° C./75% RH): Form A | solid form by PXRD after stress storage ([2]; RT/0% RH): Form A | solid form by PXRD after stress storage ([2]; RT/97% RH): Form A | phase change by PXRD at any stress condition ([2]; all temperature and humidity stress conditions of Table 3, 30 weeks): no phase change occurred | solubility compared to crystalline Form I (in words) ([3]; acetate buffer pH 4.5, 37° C., FIG. 5): significantly increased solubility | equilibrium solubility after 24 hours compared to crystalline Form I ([3]; acetate buffer pH 4.5, 37° C.): about 3 fold | phase change by PXRD during the dissolution experiments [3]: no phase changes occurred | solubility compared to crystalline Form I (in words) ([3]; phosphate buffer pH 6.8, 37° C., FIG. 6): significantly increased solubility | equilibrium solubility after 24 hours compared to crystalline Form I ([3]; phosphate buffer pH 6.8, 37° C.): about 2 fold
SMILES: C=CC(=O)N1CCN(c2nc(=O)n(-c3c(C)ccnc3C(C)C)c3nc(-c4c(O)cccc4F)c(F)cc23)[C@@H](C)C1 [Sotorasib Form A, 6-fluoro-7-(2-fluoro-6-hydroxyphenyl)-1-(4-methyl-2-(2-propanyl)-3-pyridinyl)-4-((2S)-2-methyl-4-(2-propenoyl)-1-piperazinyl)pyrido[2,3-d]pyrimidin-2(1H)-one]

SMILES: C=CC(=O)N1CCN(c2nc(=O)n(-c3c(C)ccnc3C(C)C)c3nc(-c4c(O)cccc4F)c(F)cc23)[C@@H](C)C1 [Form III of WO 2020/236947 A1, 6-fluoro-7-(2-fluoro-6-hydroxyphenyl)-1-(4-methyl-2-(2-propanyl)-3-pyridinyl)-4-((2S)-2-methyl-4-(2-propenoyl)-1-piperazinyl)pyrido[2,3-d]pyrimidin-2(1H)-one]
hygroscopic behaviour (in words) [4]: hygroscopic | Mass increase from 0-90% RH at 25° C. [4]: +7.0%

phase change by PXRD during the dissolution experiments [3]: no phase changes occurred
SMILES: C=CC(=O)N1CCN(c2nc(=O)n(-c3c(C)ccnc3C(C)C)c3nc(-c4c(O)cccc4F)c(F)cc23)[C@@H](C)C1 [Form I of WO 2020/236947 A1, 6-fluoro-7-(2-fluoro-6-hydroxyphenyl)-1-(4-methyl-2-(2-propanyl)-3-pyridinyl)-4-((2S)-2-methyl-4-(2-propenoyl)-1-piperazinyl)pyrido[2,3-d]pyrimidin-2(1H)-one]
Mass increase from 0-90% RH at 25° C. [4]: +0.5-1.0% ^ | Mass increase from 0-90% RH at 25° C. ([4]; listed as Form I): 0.5-1.0%

SMILES: C=CC(=O)N1CCN(c2nc(=O)n(-c3c(C)ccnc3C(C)C)c3nc(-c4c(O)cccc4F)c(F)cc23)[C@@H](C)C1 [Form II of WO 2020/236947 A1, 6-fluoro-7-(2-fluoro-6-hydroxyphenyl)-1-(4-methyl-2-(2-propanyl)-3-pyridinyl)-4-((2S)-2-methyl-4-(2-propenoyl)-1-piperazinyl)pyrido[2,3-d]pyrimidin-2(1H)-one]
hygroscopic behaviour (in words) [4]: hygroscopic | Mass increase from 0-90% RH at 25° C. [4]: +2-2.5%^
